Reference: patent US20220175787A1, “PATIENT SELECTION FOR ENHANCEMENT OF ANTI-TUMOR IMMUNITY IN CANCER PATIENTS” (G1 Therapeutics Inc., priority 2019, published 2022)

What was measured:
[1] = system: CD8+ T cells; format: cell-based, human; conditions: mTNBC patients
[2] = system: TNBC with high or low Ayers immune signature score; experiment: G1T28-04 survival by Ayers IFN-γ Signature / Expanded Immune Signature score; format: in vivo, human; conditions: Groups 2+3 (Group 4) vs Group 1
Experimental: Tumor samples from patients participating in the clinical trial described in Example 1 where assayed by Q^2 Solutions (Morrisville, N.C.) to determine their Ayers Immune Scores according to Ayers et al., IFN-γ-related mRNA Profile Predicts Clinical Response to PD-1 Blockade, J Clin Invest. 2017127(8)2930-2940. The data was processed using RNA Access, and FPKM normalization prior to log 10 transformation and averaging was performed.
89 samples were analyzed. The calculated signature score for both the IFN-γ Signature and Expanded Immune Signature were unimodel in distribution, and the median score was used to define the “High” and “Low” categories.
(§1) Survival and response rates between treatment groups within pre-defined immune response groups were determined using a series of pair-wise, two-group tests based on the data derived in the G1T28-04 clinical trial described in Example 1. Additionally, examination of differences in survival and response rates between different immune response categories within a single treatment group were analyzed.
Kaplan-Meier curves were generated to visualize the overall survival and progression free survival among groups (see FIGS. 8C-8F and 9A-9D). […]

[3] = system: TNBC tumors categorized as CDK4/6 independent, dependent or indeterminate; experiment: G1T28-04 subgroup analysis by CDK4/6 dependency signature (PAM50, Lehmann)
Source text: Using two established signatures (Prosigna Breast Cancer Prognostic Gene Signature Assay [PAM50] and Lehmann triple-negative breast cancer type 1-4), patient tumors were characterized as CDK4/6 independent, dependent, or indeterminate. […] Because their reliance on the CDK4/6 pathway for proliferation is either unknown or heterogeneous, the remaining PAM50 signature groups (including HER2, normal-like, luminal A, and luminal B) are categorized as CDK4/6 indeterminate.
To address the theoretical risk that trilaciclib could decrease antitumor activity in patients with CDK4/6 dependent tumors by arresting CDK4/6-dependent tumor cells during chemotherapy, an additional prespecified subgroup analysis of the antitumor activity endpoints (objective response, progression-free survival, and overall survival) using two established signatures (PAM50 and Lehmann triple-negative breast cancer type 1-4) was performed to characterize patient tumors as CDK4/6 independent, dependent, or indeterminate.

[4] = system: TNBC classified C2 IFN-γ Dominant or not; experiment: G1T28-04 survival by Thorsson Six Class Immune Signature; format: in vivo, human; conditions: TNBC classified as C2 IFN-γ Dominant; Groups 2+3 (Group 4) vs Group 1; p=0.036
Source text: Tumor samples from patients participating in the clinical trial (Clinical trials.gov identifier NCT02978716) described in Example 1 where assayed by Q^2 Solutions (Morrisville, N.C.) to determine their Six Class Immune Classification as described in Thorsson V, et al. “The Immune Landscape of Cancer.” Immunity, […], 2018, pp. 812-830. doi: 10.1016/j.immuni.2018.03.023 (incorporated herein by reference in its entirety).
Briefly, a six-step procedure was implemented to apply the Thorsson et al. classification to 89 pre-treatment triple negative breast cancer samples secured in the clinical trial described in Example 1. Following RNAseq data procurement, the data was cleaned and homogenized by reconciling gene and sample names across data sources. […] In short, samples in the resulting TCGA expression data were randomly down-sampled to more closely reflect the abundance of PAM50 classes within the clinical trial data (previously derived, see Example 1, Table 7). […]
as §1, with “analyzed. […]” for “analyzed.”

[5] = system: PD-L1 positive or negative TNBC tumors; experiment: G1T28-04 overall survival by PD-L1 tumor status (Ventana SP142); format: in vivo, human; conditions: p=0.005
Experimental: Patient tumors from the G1T28-04 clinical trial described in Example 1 were characterized based on PD-L1 expression scored as negative or positive if <1% or ≥1% of the total tumor area contained PD-L1-labelled immune cells, respectively, using the Ventana SP142 assay. Association of PD-L1 expression with antitumor efficacy was assessed using proportional hazards regression. The groups are divided as follows: Group 1 (gemcitabine+carboplatin only on days 1 and 8 in a 21-day cycles), Group 2 (gemcitabine+carboplatin+trilaciclib on days 1 and 8 in a 21 day cycle), and Group 3 (gemcitabine+carboplatin on days 2 and 9+trilaciclib on days 1, 2, 8, and 9 in a 21-day cycle).

[6] = system: T-cell clones (T-cell receptor β sequences); experiment: Phase 2 NCT03041311 (E/P/A with or without trilaciclib): TCRB differential abundance analysis in whole blood; format: in vivo, human; conditions: for T-cell clonal expansion in responders: trilaciclib responders vs placebo responders and vs trilaciclib non-responders (FIG. 12)
Experimental: (§2) A phase 2 study of carboplatin, etoposide, and atezolizumab with or without trilaciclib in patients with untreated extensive stage small cell lung cancer was initiated (Clinicaltrials.gov identifier NCT03041311). […] a 21-day induction phase and a 21-day maintenance phase. Four induction phase cycles were completed prior to the initiation of the maintenance phase cycle.
In the induction phase, patients received trilaciclib (240 mg/m2 diluted in 250 mL D5W or sodium chloride solution 0.9%) or placebo (250 mL of D5W or sodium chloride solution 0.9%) administered IV once daily on days 1 to 3 of a 21-day cycle of each etoposide/carboplatin/atezolizumab (E/P/A) therapy cycle (up to 4 cycles in total). […] Atezolizumab (1200 mg) in 250 mL sodium chloride solution 0.9% was administered as an IV infusion on day 1 of each 21-day cycle in both the induction and maintenance phases. Atezolizumab was infused over 60 minutes for the first administration and, if tolerated, all subsequent infusions were delivered over 30 minutes. Atezolizumab was administered following the completion of administration of Compound I or placebo, etoposide, and carboplatin.
Analysis of the TCRB locus in blood samples was performed to identify biomarkers of immune response and immunomodulatory activity between the trilaciclib arm and the placebo arm. All samples were sequenced using a 1-rxn TCRB Assay. The number of expanded T-cell clones was determined by the differential abundance analysis of T-cell receptor β sequences in whole blood from patients at after induction and prior to starting maintenance versus baseline.

[7] = system: extensive stage small cell lung cancer; experiment: Phase 2 NCT03041311: overall survival by newly expanded clone fraction; format: in vivo, human; conditions: SCLC patients on E/P/A above the newly expanded clone fraction median; p=0.04
Experimental: as §2
. […] Atezolizumab (1200 mg) in 250 mL sodium chloride solution 0.9% was administered as an IV infusion on day 1 of each 21-day cycle in both the induction and maintenance phases. Atezolizumab was infused over 60 minutes for the first administration and, if tolerated, all subsequent infusions were delivered over 30 minutes. Atezolizumab was administered following the completion of administration of Compound I or placebo, etoposide, and carboplatin.

SMILES: CN1CCN(c2ccc(Nc3ncc4cc5n(c4n3)C3(CCCCC3)CNC5=O)nc2)CC1 [trilaciclib, 2′-((5-(4-methylpiperazin-1-yl)pyridin-2-yl)amino)-7′, 8′-dihydro-6′H-spiro(cyclohexane-1,9′-pyrazino(1′,2′:1,5)pyrrolo(2,3-d)pyrimidin)-6′-one]
- Lymphocyte counts and T-cell activation ([1]; addition of trilaciclib to gemcitabine and carboplatin): did not preserve lymphocyte counts or enhance T-cell activation
- Frequency of CD8+ T cells producing IFN-γ after ex-vivo stimulation ([1]; GC plus trilaciclib vs group 1 (FIG. 5)): higher frequency
- Overall survival compared with Group 1 (not receiving trilaciclib) ([2]; TNBC with high Ayers Expanded Immune Signature score): significantly improved overall survival
- Overall survival compared with Group 1 (not receiving trilaciclib) ([2]; TNBC with high Ayers IFN-γ Signature score, p=0.0194): significantly improved overall survival
- Effect of including trilaciclib on chemotherapy efficacy ([3]; TNBC with variable or CDK4/6 dependent tumor (PAM50 Other or Lehmann LAR)): did not antagonize chemotherapy efficacy
- Effect of including trilaciclib on chemotherapy efficacy ([3]; TNBC with variable or CDK4/6 independent tumor (PAM50 Basal-Like or Lehmann Other)): did not antagonize chemotherapy efficacy
- Overall survival compared with Group 1 (not receiving trilaciclib) [4]: significantly improved overall survival
- Overall survival compared with patients who did not receive trilaciclib [5]: statistically significant overall survival
- Number of expanded T-cell clones ([6]; SCLC patients on E/P/A, trilaciclib vs E/P/A only, after induction vs baseline, P=0.01, FIG. 11): significantly higher
- Number of newly expanded T-cell clones in responders ([6]; SCLC, E/P/A, responders receiving trilaciclib vs without, p=0.001, FIG. 13): more newly expanded clones
- Fraction of newly expanded clones versus all expanded clones in responders ([6]; SCLC, E/P/A, responders receiving trilaciclib vs without, p=0.001, FIG. 14): significantly increased
- T-cell clonal expansion in responders ([6]; SCLC, E/P/A): more T-cell clonal expansion
- T-cell clonal expansion in responders ([6]; SCLC, E/P/A, listed as Trilaciclib): more clonal expansion
- OS HR (trilaciclib versus placebo) [7]: 0.34
